Patent publication US20150258072A1, “Antibacterial compositions” (WOCKHARDT LIMITED, priority 2012, published 2015)
Like-named read-outs stand apart in the source and are kept apart here.

Tests used:
Assay type in all cases: cell-based
[1] = tested on: K. pneumoniae ATCC 700603 strain producing SHV 18 ESBL; assay: MIC by agar dilution (CLSI); conditions: Klebsiella pneumoniae
Procedure: The efficacy of compositions and methods in treating or controlling bacterial infections was studied. In a typical study, overnight grown bacterial cultures were diluted appropriately and inoculated on the agar media containing doubling dilutions of the antibiotic. Observation for growth or no growth was performed after 16-20 hours of incubation at 35±2° C. in ambient air. The overall procedure was performed as per Clinical and Laboratory Standards Institute (CLSI) recommendations (Clinical and Laboratory Standards Institute (CLSI), performance Standards for Antimicrobial Susceptibility Testing, 20th Informational Supplement, M 100-S20, Volume 30, No. 1, 2010).

[2] = tested on: K. pneumoniae ATCC 700603 strain producing SHV 18 ESBL; assay: Cidal activity (bacterial count over time); conditions: for Bacterial count: concentrations in label
[3] = tested on: K. pneumoniae B 43 strain producing SHV and TEM ESBLs; assay: Cidal activity (bacterial count over time); conditions: concentrations in label
[4] = Table 2, 2 hours, initial count 6.65 log CFU/ml
[5] = Table 2, 6 hours, initial count 6.65 log CFU/ml
[6] = Table 2, 8 hours, initial count 6.65 log CFU/ml
[7] = Table 3, 2 hours, initial count 7.04 log CFU/ml
[8] = Table 3, 6 hours, initial count 7.04 log CFU/ml
[9] = Table 3, 8 hours, initial count 7.04 log CFU/ml
[10] = Table 4, 2 hours, initial count 7.43 log CFU/ml
[11] = Table 4, 4 hours, initial count 7.43 log CFU/ml
[12] = Table 4, 8 hours, initial count 7.43 log CFU/ml
[13] = Table 5, 2 hours, initial count log 7.43 CFU/ml
[14] = Table 5, 4 hours, initial count log 7.43 CFU/ml
[15] = Table 5, 8 hours, initial count log 7.43 CFU/ml
[16] = Table 6, 2 hours, initial count 7.27 log CFU/ml
[17] = Table 6, 4 hours, initial count 7.27 log CFU/ml
[18] = Table 6, 8 hours, initial count 7.27 log CFU/ml
[19] = Table 7, 2 hours, initial count 7.27 log CFU/ml
[20] = Table 7, 4 hours, initial count 7.27 log CFU/ml
[21] = Table 7, 8 hours, initial count 7.27 log CFU/ml

Compound `CC1(C)S[C@@H]2[C@H](NC(=O)[C@H](N)c3ccc(O)cc3)C(=O)N2[C@H]1C(=O)O` [Amoxicillin, amoxicillin] has an MIC ([1]; ATCC700603, amoxicillin alone or with fixed concentration of partner(s) named in the label, read-out: MIC of Amoxicillin) greater than 64 µg/mL, a Bacterial count [2, 4] of 7.84 Log CFU/ml and a Bacterial count [2, 5] of 8.5 Log CFU/ml. The Bacterial count [2, 6] was 9 Log CFU/ml, the “antibacterial activity (growth in presence of drug alone)” value (from here on “antibacterial activity”) ([2]; Table 2) was “no antibacterial activity” and the Bacterial count [3, 7] was 7.8 Log CFU/ml. The Bacterial count [3, 8] was 8.8 Log CFU/ml and the Bacterial count [3, 9] was 9 Log CFU/ml.
Work on `C=CC1=C(C(=O)O)N2C(=O)[C@@H](NC(=O)/C(=N\OCC(=O)O)c3csc(N)n3)[C@H]2SC1` [Cefixime (2 mcg/ml), cefixime] yielded a Bacterial count [2, 10] of 8.11 Log CFU/ml, a Bacterial count [2, 11] of 8.30 Log CFU/ml and a Bacterial count [2, 12] of 9 Log CFU/ml. It also gave a Bacterial count [3, 13] of 8.16 Log CFU/ml, a Bacterial count [3, 14] of 8.47 Log CFU/ml and a Bacterial count [3, 15] of 8.84 Log CFU/ml.
`COCC1=C(C(=O)O)N2C(=O)[C@@H](NC(=O)/C(=N\OC)c3csc(N)n3)[C@H]2SC1` [Cefpodoxime (2 mcg/ml), cefpodoxime] gave a Bacterial count [2, 16] of 8.54 Log CFU/ml, a Bacterial count [2, 17] of 9 Log CFU/ml and a Bacterial count [2, 18] of 9 Log CFU/ml.
Work on `CO/N=C(\C(=O)N[C@@H]1C(=O)N2C(C(=O)O)=C(COC(N)=O)CS[C@H]12)c1ccco1` [Cefuroxime (2 mcg/ml), cefuroxime] yielded a Bacterial count [2, 19] of 8.77 Log CFU/ml, a Bacterial count [2, 20] of 8.90 Log CFU/ml and a Bacterial count [2, 21] of 9 Log CFU/ml.
`O=C(O)[C@H]1/C(=C/CO)O[C@@H]2CC(=O)N21` [Clavulanic acid, clavulanic acid] gave an MIC ([1]; ATCC700603, read-out: MIC value when used alone) greater than 64 µg/mL, a Bacterial count [2, 4] of 8.1 Log CFU/ml and a Bacterial count [2, 5] of 8.8 Log CFU/ml. For the same compound, the Bacterial count [2, 6] was 9 Log CFU/ml, the Bacterial count [2, 10] was 8.4 Log CFU/ml and the Bacterial count [2, 11] was 8.65 Log CFU/ml. It also gave a Bacterial count [2, 12] of 8.9 Log CFU/ml, a Bacterial count [2, 16] of 8.47 Log CFU/ml and a Bacterial count [2, 17] of 9.09 Log CFU/ml. For the same compound, the Bacterial count [2, 18] was 9.09 Log CFU/ml, the Bacterial count [2, 19] was 8.47 Log CFU/ml and the Bacterial count [2, 20] was 9.09 Log CFU/ml. For the same compound, the Bacterial count [2, 21] was 9.09 Log CFU/ml, the “antibacterial activity” value ([2]; Table 2) was “no antibacterial activity” and the Bacterial count [3, 7] was 8.1 Log CFU/ml. For the same compound, the Bacterial count [3, 8] was 8.7 Log CFU/ml, the Bacterial count [3, 9] was 9 Log CFU/ml and the Bacterial count [3, 13] was 8.1 Log CFU/ml. It also gave a Bacterial count [3, 14] of 8.56 Log CFU/ml and a Bacterial count [3, 15] of 8.85 Log CFU/ml.
Compound `C[C@@H](O)[C@H]1C(=O)N2C(C(=O)O)=C(SCCN=CN)C[C@H]12` [Imipenem, imipenem] has a Bacterial count [2, 4] of 5.32 Log CFU/ml, a Bacterial count [2, 5] of 2.6 Log CFU/ml and a Bacterial count [2, 6] of 2.0 Log CFU/ml. The Bacterial count [2, 10] was 4.87 Log CFU/ml, the Bacterial count [2, 11] was 3.39 Log CFU/ml and the Bacterial count [2, 12] was 2.84 Log CFU/ml. It also gave a Bacterial count [2, 16] of 5.32 Log CFU/ml, a Bacterial count [2, 17] of 3.84 Log CFU/ml and a Bacterial count [2, 18] of 2.32 Log CFU/ml. For the same compound, the Bacterial count [2, 19] was 5.32 Log CFU/ml, the Bacterial count [2, 20] was 3.84 Log CFU/ml and the Bacterial count [2, 21] was 2.32 Log CFU/ml. For the same compound, the Bacterial count [3, 7] was 5.4 Log CFU/ml, the Bacterial count [3, 8] was 3.9 Log CFU/ml and the Bacterial count [3, 9] was 3.8 Log CFU/ml. For the same compound, the Bacterial count [3, 13] was 6.37 Log CFU/ml, the Bacterial count [3, 14] was 5.69 Log CFU/ml and the Bacterial count [3, 15] was 6.60 Log CFU/ml.
`CC1(C)S[C@@H]2[C@H](/N=C/N3CCCCCC3)C(=O)N2[C@H]1C(=O)O` [Mecillinam, mecillinam] showed an MIC ([1]; ATCC700603, agent used alone, read-out: MIC value when used alone) greater than 64 µg/mL, a Bacterial count [2, 4] of 7.47 Log CFU/ml and a Bacterial count [2, 5] of 8.23 Log CFU/ml. For the same compound, the Bacterial count [2, 6] was 9.1 Log CFU/ml, the Bacterial count [2, 10] was 7.95 Log CFU/ml and the Bacterial count [2, 11] was 8.33 Log CFU/ml. The Bacterial count [2, 12] was 8.90 Log CFU/ml, the Bacterial count [2, 16] was 8.23 Log CFU/ml and the Bacterial count [2, 17] was 8.74 Log CFU/ml. It also gave a Bacterial count [2, 18] of 9.47 Log CFU/ml, a Bacterial count [2, 19] of 8.23 Log CFU/ml and a Bacterial count [2, 20] of 8.74 Log CFU/ml. The Bacterial count [2, 21] was 9.47 Log CFU/ml, the “antibacterial activity” value ([2]; Table 2) was “no antibacterial activity” and the Bacterial count [3, 7] was 7.74 Log CFU/ml. It also gave a Bacterial count [3, 8] of 8.69 Log CFU/ml, a Bacterial count [3, 9] of 8.89 Log CFU/ml and a Bacterial count [3, 13] of 8.39 Log CFU/ml. For the same compound, the Bacterial count [3, 14] was 8.60 Log CFU/ml and the Bacterial count [3, 15] was 8.90 Log CFU/ml.
